According to US9745291B2, “PRMT5 inhibitors containing a dihydro- or tetrahydroisoquinoline and uses thereof” (Epizyme, Inc., priority 2012, dated 2017):
Like-named read-outs stand apart in the source and are kept apart here.

Legend:
PRMT5/MEP50 = PRMT5/MEP50 (Homo sapiens (Human), UniProt O14744); experiment: PRMT5 Biochemical Assay (PRMT5/MEP50 enzyme assay on peptide substrate, 3H-SAM Flashplate)
[1] = system: symmetric di-methyl arginine in Z-138 cells; experiment: Z-138 Methylation Assay (In Cell Western for symmetric di-methyl arginine and DNA content); format: cell-based; settings: Homo sapiens, Z-138, Z-138 cells, read-out: ICW EC50
Source text: [formula] Where top and bottom are the normally allowed to float, but may be fixed at 100 or 0 respectively in a 3-parameter fit. The Hill Coefficient normally allowed to float but may also be fixed at 1 in a 3-parameter fit. Y is the % inhibition and X is the compound concentration. Z-138 Methylation Assay
Z-138 suspension cells were purchased from ATCC (American Type Culture Collection, Manassas, Va.). RPMI/Glutamax medium, penicillin-streptomycin, heat inactivated fetal bovine serum, and D-PBS were purchased from Life Technologies, Grand Island, N.Y., USA. Odyssey blocking buffer, 800CW goat anti-rabbit IgG (H+L) antibody, and Licor Odyssey infrared scanner were purchased from Licor Biosciences, Lincoln, Nebr., USA. Symmetric di-methyl arginine antibody was purchased from EMD Millipore, Billerica, Mass., USA. 16% Paraformaldehyde was purchased from Electron Microscopy Sciences, Hatfield, Pa., USA.
Z-138 suspension cells were maintained in growth medium (RPMI 1640 supplemented with 10% v/v heat inactivated fetal bovine serum and 100 units/mL penicillin-streptomycin) and cultured at 37° C. under 5% CO2.
Cell Treatment, in Cell Western (ICW) for Detection of Symmetric Di-Methyl Arginine and DNA Content.
Z-138 cells were seeded in assay medium at a concentration of 50,000 cells per mL to a 384-well cell culture plate with 50 μL per well. Compound (100 nL) from 384 well source plates was added directly to 384 well cell plate. Plates were incubated at 37° C., 5% CO2 for 96 hours. After four days of incubation, 40 μL of cells from incubated plates were added to poly-D-lysine coated 384 well culture plates (BD Biosciences 356697). Plates were incubated at room temperature for 30 minutes then incubated at 37° C., 5% CO2 for 5 hours. After the incubation, 40 μL per well of 8% paraformaldehyde in PBS (16% paraformaldahyde was diluted to 8% in PBS) was added to each plate and incubated for 30 minutes. Plates were transferred to a Biotek 405 plate washer and washed 5 times with 100 μL per well of wash buffer (1×PBS with 0.1% Triton X-100 (v/v)). Next 30 μL per well of Odyssey blocking buffer were added to each plate and incubated 1 hour at room temperature. Blocking buffer was removed and 20 μL per well of primary antibody was added (symmetric di-methyl arginine diluted 1:100 in Odyssey buffer with 0.1% Tween 20 (v/v)) and plates were incubated overnight (16 hours) at 4° C. Plates were washed 5 times with 100 μL per well of wash buffer. Next 20 μL per well of secondary antibody was added (1:200 800CW goat anti-rabbit IgG (H+L) antibody, 1:1000 DRAQ5 (Biostatus limited) in Odyssey buffer with 0.1% Tween 20 (v/v)) and incubated for 1 hour at room temperature. The plates were washed 5 times with 100 μL per well wash buffer then 1 time with 100 μL per well of water. Plates were allowed to dry at room temperature then imaged on the Licor Odyssey machine which measures integrated intensity at 700 nm and 800 nm wavelengths. Both 700 and 800 channels were scanned.
First, the ratio for each well was determined by:
Each plate included fourteen control wells of DMSO only treatment (minimum inhibition) as well as fourteen control wells for maximum inhibition treated with 3 μM of a reference compound (Background wells). The average of the ratio values for each control type was calculated and used to determine the percent inhibition for each test well in the plate. Reference compound was serially diluted three-fold in DMSO for a total of nine test concentrations, beginning at 3 μM. Percent inhibition was determined and IC50 curves were generated using triplicate wells per concentration of compound. […]

Z-138 cell line = experiment: Z-138 Proliferation Assay (Cell Titer Glo, 5 days); format: cell-based; settings: Homo sapiens, Z-138, 120 h, Z-138 cells
Source text: [formula] Z-138 Proliferation Assay
Z-138 suspension cells were purchased from ATCC (American Type Culture Collection, Manassas, Va.). RPMI/Glutamax medium, penicillin-streptomycin, heat inactivated fetal bovine serum were purchased from Life Technologies, Grand Island, N.Y., USA. V-bottom polypropylene 384-well plates were purchased from Greiner Bio-One, Monroe, N.C., USA. Cell culture 384-well white opaque plates were purchased from Perkin Elmer, Waltham, Mass., USA. Cell-Titer Glo® was purchased from Promega Corporation, Madison, Wis., USA. SpectraMax M5 plate reader was purchased from Molecular Devices LLC, Sunnyvale, Calif., USA.
Z-138 suspension cells were maintained in growth medium (RPMI 1640 supplemented with 10% v/v heat inactivated fetal bovine serum and cultured at 37° C. under 5% CO2 Under assay conditions, cells were incubated in assay medium (RPMI 1640 supplemented with 10% v/v heat inactivated fetal bovine serum and 100 units/mL penicillin-streptomycin) at 37° C. under 5% CO2.
For the assessment of the effect of compounds on the proliferation of the Z-138 cell line, exponentially growing cells were plated in 384-well white opaque plates at a density of 10,000 cells/ml in a final volume of 50 μl of assay medium. A compound source plate was prepared by performing triplicate nine-point 3-fold serial dilutions in DMSO, beginning at 10 mM (final top concentration of compound in the assay was 20 μM and the DMSO was 0.2%). A 100 nL aliquot from the compound stock plate was added to its respective well in the cell plate. […] After addition of compounds, assay plates were incubated for 5 days at 37° C., 5% CO2, relative humidity >90%.
Cell viability was measured by quantitation of ATP present in the cell cultures, adding 35 μl of Cell Titer Glo® reagent to the cell plates. Luminescence was read in the SpectraMax M5 microplate reader. The concentration of compound inhibiting cell viability by 50% was determined using a 4-parametric fit of the normalized dose response curves.

[2] = PRMT5 biochemical assay, read-out: Biochemical IC50

Sequence of PRMT5/MEP50 (O14744 other isoform, or with tags, fused parts or gaps): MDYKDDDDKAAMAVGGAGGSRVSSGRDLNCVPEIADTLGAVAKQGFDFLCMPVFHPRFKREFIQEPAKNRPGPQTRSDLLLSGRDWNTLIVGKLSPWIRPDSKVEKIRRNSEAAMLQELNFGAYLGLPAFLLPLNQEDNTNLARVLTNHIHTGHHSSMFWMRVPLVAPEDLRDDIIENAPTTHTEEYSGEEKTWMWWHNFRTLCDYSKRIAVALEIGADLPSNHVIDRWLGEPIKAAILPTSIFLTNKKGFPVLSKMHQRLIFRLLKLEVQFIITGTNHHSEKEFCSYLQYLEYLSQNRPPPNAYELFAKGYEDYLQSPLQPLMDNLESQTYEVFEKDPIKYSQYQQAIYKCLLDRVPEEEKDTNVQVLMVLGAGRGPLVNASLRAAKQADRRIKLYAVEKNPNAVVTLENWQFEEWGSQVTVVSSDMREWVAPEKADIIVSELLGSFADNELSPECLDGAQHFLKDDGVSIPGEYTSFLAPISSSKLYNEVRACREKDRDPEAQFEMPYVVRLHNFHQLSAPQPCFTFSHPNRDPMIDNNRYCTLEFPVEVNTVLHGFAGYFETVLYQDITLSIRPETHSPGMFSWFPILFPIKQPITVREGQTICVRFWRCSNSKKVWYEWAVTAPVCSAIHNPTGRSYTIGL
Sequence of PRMT5/MEP50 (Q9BQA1 other isoform, or with tags, fused parts or gaps partner): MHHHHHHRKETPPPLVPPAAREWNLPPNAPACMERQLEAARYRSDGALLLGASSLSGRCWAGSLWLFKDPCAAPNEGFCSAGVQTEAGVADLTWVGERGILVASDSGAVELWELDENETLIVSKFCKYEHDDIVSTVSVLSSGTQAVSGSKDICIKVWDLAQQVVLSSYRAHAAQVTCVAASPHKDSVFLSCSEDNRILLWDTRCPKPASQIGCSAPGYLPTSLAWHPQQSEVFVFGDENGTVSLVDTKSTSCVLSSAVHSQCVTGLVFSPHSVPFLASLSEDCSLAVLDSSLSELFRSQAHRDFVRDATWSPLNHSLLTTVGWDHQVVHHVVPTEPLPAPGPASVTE

Compound | IC50 (PRMT5/MEP50; [2]) [nM] | EC50 [1] [nM] | EC50 (Z-138 cell line) [nM] | IC50 (PRMT5/MEP50) [nM]
Cn1ccnc1CCNC(=O)c1cccc(OCC(=O)NC[C@@H](O)CN2CCc3ccccc3C2)c1 [Compound 245] | 101 to 1000 | > 1000 | > 20000 | 
CNC1CN(S(=O)(=O)c2ccccc2OCC(=O)NC[C@@H](O)CN2CCc3ccccc3C2)CC1O (stereo partly drawn) [Compound 246] | < 100 | 101 to 1000 | > 20000 | 
CN1CCCC(c2c(CS(C)(=O)=O)cccc2OCC(=O)NC[C@@H](O)CN2CCc3ccccc3C2)C1 (stereo partly drawn) [Compound 247] | 101 to 1000 | > 1000 | > 20000 | 
COc1ccc2[nH]c(CCC(=O)NC[C@H](O)CN3CCc4ccccc4C3)nc2c1 [Compound 249] | < 100 | < 100 | 1000 to 10000 | 
Cc1cccc2[nH]c(CCC(=O)NC[C@H](O)CN3CCc4ccccc4C3)nc12 [Compound 250] | < 100 | < 100 | 1000 to 10000 | 
O=C(COc1ccccc1C1CCCCN1)NC[C@H](O)CN1CCc2ccccc2C1 (stereo partly drawn) [Compound 253] | < 100 | 101 to 1000 | 10000 to 50000 | 
CC1NCCCC1c1ccccc1OCC(=O)NC[C@@H](O)CN1CCc2ccccc2C1 (stereo partly drawn) [Compound 254] | 101 to 1000 | > 1000 | 10000 to 50000 | 
Cn1cncc1-c1cccc(OCC(=O)NC[C@@H](O)CN2CCc3ccccc3C2)c1 [Compound 255] | 101 to 1000 | 101 to 1000 | > 20000 | 
Cn1cc(-c2ccccc2)nc1CCC(=O)NC[C@H](O)CN1CCc2ccccc2C1 [Compound 256] | 101 to 1000 | 101 to 1000 | > 20000 | 
CN1CC(CN(C)S(=O)(=O)c2ccccc2OCC(=O)NC[C@@H](O)CN2CCc3ccccc3C2)C1 [Compound 257] | < 100 | < 100 | 101 to 1000 | 
CN1CCCCC1c1ccccc1OCC(=O)NCC(O)CN1CCc2ccccc2C1 (stereo not drawn) [Compound 258] | 101 to 1000 | 101 to 1000 | 1000 to 10000 | 
Cn1ccnc1CCC(=O)NC[C@H](O)CN1CCc2ccccc2C1 [Compound 259] | 101 to 1000 | 101 to 1000 | > 20000 | 
CC(C)N(C)CCN(C)S(=O)(=O)c1ccccc1OCC(=O)NC[C@@H](O)CN1CCc2ccccc2C1 [Compound 260] | < 100 | < 100 | 1000 to 10000 | 
O=C(COc1ccccc1[C@H]1CCCNC1)NC[C@H](O)CN1CCc2ccccc2C1 [Compound 261] | < 100 | 101 to 1000 | 1000 to 10000 | 
O=C(COc1ccccc1[C@@H]1CCCNC1)NC[C@H](O)CN1CCc2ccccc2C1 [Compound 262] | < 100 | 101 to 1000 | 10000 to 50000 | 
O=C(COc1ccccc1[C@H]1CCCNC1)NC[C@@H](O)CN1CCc2ccccc2C1 [Compound 263] | 101 to 1000 | 101 to 1000 | 10000 to 50000 | 
O=C(COc1ccccc1[C@@H]1CCCNC1)NC[C@@H](O)CN1CCc2ccccc2C1 [Compound 264] | 101 to 1000 | > 1000 | 10000 to 50000 | 
CS(=O)(=O)Nc1cccc(OCC(=O)NC[C@@H](O)CN2CCc3ccccc3C2)c1C1CCCNC1 (stereo partly drawn) [Compound 265] | 101 to 1000 | > 1000 | > 20000 | 
CC(C)N1CCCC(c2c(NS(C)(=O)=O)cccc2OCC(=O)NC[C@@H](O)CN2CCc3ccccc3C2)C1 (stereo partly drawn) [Compound 266] | 101 to 1000 | > 1000 | > 20000 | 
O=C(COc1cccc(C(=O)NCCc2ncc[nH]2)c1)NC[C@@H](O)CN1CCc2ccccc2C1 [Compound 267] | 101 to 1000 | > 1000 | > 20000 | 
[2H]C1([2H])Cc2ccccc2C([2H])([2H])N1C[C@H](O)CNC(=O)COc1cccc2cccnc12 [Compound 269] |  | 101 to 1000 | > 5000 | 101 to 1000
O=C(COc1ccccc1N1CCNCC1)NC[C@H](O)CN1CCc2ccccc2C1 [Compound 271] | < 100 | < 100 | 1000 to 10000 | 
